Results as given in PMC10940802 (Computational and Structural Biotechnology Journal, 2024).

Assays:
Assay in all cases: UPLC glycosylation assay, […] nm
Type in all cases: biochemical, Periploca forrestii
Details in all cases: UDP-glucose as sugar donor; 10 mM PBS pH 8.0, 37 °C
PfUGT92A8 = tested on: PfUGT92A8
PfUGT74B4 = tested on: PfUGT74B4
PfUGT74E7 = tested on: PfUGT74E7
PfUGT75C6 = tested on: PfUGT75C6

Row | Km (PfUGT92A8) | Km (PfUGT74B4) | Km (PfUGT74E7) | Km (PfUGT75C6) | Structure (SMILES)
1 | 51.4 µM | 47.8 µM | – | – | O=C1CC(O)(c2ccc(O)cc2)Oc2cc(O)cc(O)c21 (centres unmarked) [2-Hydroxynaringenin]
2 | – | 2.23 µM | – | – | COc1ccc(-c2cc(=O)c3c(O)cc(O)cc3o2)cc1 [Acacetin]
3 | 148 µM | 50.2 µM | 5.97 µM | 29 µM | O=c1cc(-c2ccc(O)cc2)oc2cc(O)cc(O)c12 [Apigenin]
4 | 134 µM | 65.2 µM | – | – | O=c1cc(-c2ccc(O)c(O)c2)oc2cc(O)c([C@@H]3O[C@H](CO)[C@@H](O)[C@H](O)[C@H]3O)c(O)c12 [Isoorientin]
5 | 78.2 µM | 58.6 µM | – | – | O=c1cc(-c2ccc(O)cc2)oc2cc(O)c([C@@H]3O[C@H](CO)[C@@H](O)[C@H](O)[C@H]3O)c(O)c12 [Isovitexin]
6 | 252 µM | 58.3 µM | 7.75 µM | 28.4 µM | O=c1cc(-c2ccc(O)c(O)c2)oc2cc(O)cc(O)c12 [Luteolin]
7 | 218 µM | – | – | – | O=c1cc(-c2ccc(O)c(O)c2)oc2c([C@@H]3O[C@H](CO)[C@@H](O)[C@H](O)[C@H]3O)c(O)cc(O)c12 [Orientin]
8 | 34.7 µM | 45.6 µM | – | – | O=C(CCc1ccc(O)cc1)c1c(O)cc(O)cc1O [Phloretin]
9 | 94.2 µM | 307 µM | – | – | O=c1cc(-c2ccc(O)cc2)oc2c([C@@H]3O[C@H](CO)[C@@H](O)[C@H](O)[C@H]3O)c(O)cc(O)c12 [Vitexin]
